Strand notation (5' to 3'): a small letter for the sugar, then the base; units joined by * are phosphorothioate-linked, units joined directly phosphodiester-linked; [ ] holds rarer units or linkages, { } end groups; capitals alone tell only the bases. e = 2'-O-(2-methoxyethyl) (MOE); [5mC] = 5-methylcytosine; d = 2'-deoxy (DNA)
tested on: human SMAD7 mRNA; assay: Antisense inhibition of human SMAD7 mRNA expression in Hep3B cells by 5-10-5 MOE gapmers, single concentration, electroporation, RT-PCR (Example 1, Study 1 and 2); format: cell-based; details: Study 2, electroporation with 15,000 nM antisense oligonucleotide, 5-10-5 MOE gapmers targeting SEQ ID NO: 1 and 2
How it was run: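 Readout is percent SMAD7 mRNA inhibition versus untreated cells, measured by qRT-PCR (RTS5062) and corrected for total RNA by RIBOGREEN. Oligonucleotide, 5,000 nM or 15,000 nM, was delivered by electroporation into Hep3B cells at 20,000 per well. RNA was collected about 24 h later.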

Compared with “771580 (antisense eA*eG*e[5mC]*eT*eT*dG*d[5mC]*d[5mC]*d[5mC]*dA*dG*dG*dT*dA*d[5mC]*eT*eG*e[5mC]*e[5mC]*eT) [compound 771580]”, “771582 (antisense e[5mC]*eT*eG*eG*e[5mC]*dA*dG*d[5mC]*dT*dG*d[5mC]*dT*dG*dG*dG*eA*e[5mC]*e[5mC]*e[5mC]*e[5mC]) [compound 771582]” is higher in “% inhibition of SMAD7 mRNA expression” value: 25% for the first, 37% for the second.

First: 771588 (antisense eA*eG*eG*e[5mC]*e[5mC]*d[5mC]*dG*dT*dG*dT*d[5mC]*d[5mC]*dT*dT*dG*eA*eT*eG*eA*eG) [compound 771588]
Second: 771590 (antisense eG*e[5mC]*e[5mC]*eT*eG*dT*dG*dG*dA*d[5mC]*dA*dG*dG*d[5mC]*d[5mC]*e[5mC]*eG*eT*eG*eT) [compound 771590]
The “% inhibition of SMAD7 mRNA expression” value of the first is lower: 13% for the first, 14% for the second.

Going from “771591 (antisense e[5mC]*eA*eG*eA*eA*dG*d[5mC]*d[5mC]*dT*dG*dT*dG*dG*dA*d[5mC]*eA*eG*eG*e[5mC]*e[5mC]) [compound 771591]” to “771596 (antisense eG*eA*e[5mC]*eA*eA*dG*dG*dA*dT*dG*dA*dA*dA*dA*dT*eA*eA*eT*eT*eG) [compound 771596]”, the “% inhibition of SMAD7 mRNA expression” value falls from 50% to 0%.

Compared with “771598 (antisense eG*eA*eA*eG*eG*dG*dA*dA*dT*dA*dA*dG*dA*d[5mC]*dA*eA*eG*eG*eA*eT) [compound 771598]”, “771599 (antisense eG*e[5mC]*eA*eG*eG*dA*dA*dG*dG*dG*dA*dA*dT*dA*dA*eG*eA*e[5mC]*eA*eA) [compound 771599]” is higher in “% inhibition of SMAD7 mRNA expression” value: 34% for the first, 39% for the second.

First: 771604 (antisense e[5mC]*e[5mC]*eT*eT*eG*dG*dG*dA*dA*dG*d[5mC]*d[5mC]*d[5mC]*dA*dT*e[5mC]*eT*e[5mC]*eA*eG) [compound 771604]
Second: 771606 (antisense eG*eG*eG*e[5mC]*eT*dG*d[5mC]*d[5mC]*d[5mC]*d[5mC]*dG*dG*d[5mC]*dA*dG*e[5mC]*e[5mC]*e[5mC]*eT*eT) [compound 771606]
The “% inhibition of SMAD7 mRNA expression” value of the first is higher: 12% for the first, 0% for the second.

First: 771607 (antisense eG*eG*eT*eG*eA*dG*d[5mC]*dA*dA*dT*dA*d[5mC]*dT*dG*dT*eG*eA*eG*eG*eG) [compound 771607]
Second: 771612 (antisense eT*e[5mC]*e[5mC]*eG*eG*dG*dA*dA*dA*dA*dA*d[5mC]*d[5mC]*dT*dG*eA*eT*eG*eT*e[5mC]) [compound 771612]
The “% inhibition of SMAD7 mRNA expression” value of the first is higher: 34% for the first, 3% for the second.

Compared with “771614 (antisense eG*eT*eT*eT*eT*d[5mC]*dT*dA*dA*dG*dT*d[5mC]*d[5mC]*dG*dG*eG*eA*eA*eA*eA) [compound 771614]”, “771615 (antisense eA*eG*e[5mC]*eT*eG*dG*dT*dT*dT*dT*d[5mC]*dT*dA*dA*dG*eT*e[5mC]*e[5mC]*eG*eG) [compound 771615]” is higher in “% inhibition of SMAD7 mRNA expression” value: 25% for the first, 45% for the second.

Going from “771620 (antisense e[5mC]*eA*e[5mC]*eA*e[5mC]*dA*dG*dG*dA*dT*dG*dG*dG*dA*dG*e[5mC]*eA*eG*eG*e[5mC]) [compound 771620]” to “771622 (antisense eA*eA*e[5mC]*eA*e[5mC]*dA*d[5mC]*dA*dG*dG*dA*dT*dG*dG*dG*eA*eG*e[5mC]*eA*eG) [compound 771622]”, the “% inhibition of SMAD7 mRNA expression” value rises from 12% to 34%.

Compared with “771623 (antisense eT*eA*eA*e[5mC]*eA*d[5mC]*dA*d[5mC]*dA*dG*dG*dA*dT*dG*dG*eG*eA*eG*e[5mC]*eA) [compound 771623]”, “771628 (antisense e[5mC]*e[5mC]*eA*eG*eG*dG*dA*d[5mC]*dA*dT*d[5mC]*d[5mC]*d[5mC]*d[5mC]*dG*e[5mC]*eT*eT*eG*e[5mC]) [compound 771628]” is lower in “% inhibition of SMAD7 mRNA expression” value: 51% for the first, 12% for the second.

same assay, conditions: electroporation with 15,000 nM antisense oligonucleotide (Study 2), 5-10-5 MOE gapmers targeting SEQ ID NO: 1 and 2

First: 771584 (antisense eA*eG*e[5mC]*e[5mC]*eG*dT*dG*d[5mC]*dT*d[5mC]*d[5mC]*dT*dG*dG*d[5mC]*eA*eG*e[5mC]*eT*eG) [compound 771584]
Second: 771592 (antisense e[5mC]*eT*eG*e[5mC]*eT*d[5mC]*dA*dG*dA*dA*dG*d[5mC]*d[5mC]*dT*dG*eT*eG*eG*eA*e[5mC]) [compound 771592]
The “% Inhibition of SMAD7 mRNA” value of the first is higher: 26% for the first, 16% for the second.

Going from “771600 (antisense eT*eG*eG*e[5mC]*e[5mC]*dA*dA*dA*dA*dA*dA*dG*dA*dA*dA*eG*eA*e[5mC]*eG*e[5mC]) [compound 771600]” to “771608 (antisense e[5mC]*eT*eG*eG*eG*dT*dG*dA*dG*d[5mC]*dA*dA*dT*dA*d[5mC]*eT*eG*eT*eG*eA) [compound 771608]”, the “% Inhibition of SMAD7 mRNA” value rises from 11% to 45%.

First: 771616 (antisense eT*eG*e[5mC]*eT*eG*dA*dG*d[5mC]*dT*dG*dG*dT*dT*dT*dT*e[5mC]*eT*eA*eA*eG) [compound 771616]
Second: 771624 (antisense eT*eT*eA*eA*e[5mC]*dA*d[5mC]*dA*d[5mC]*dA*dG*dG*dA*dT*dG*eG*eG*eA*eG*e[5mC]) [compound 771624]
The “% Inhibition of SMAD7 mRNA” value of the first is higher: 33% for the first, 27% for the second.

First: 771602 (antisense eG*eG*eA*eG*eA*dT*d[5mC]*d[5mC]*dA*dG*dG*dA*dG*d[5mC]*dA*eG*eA*eT*eG*eG) [compound 771602]
Second: 771608 (antisense e[5mC]*eT*eG*eG*eG*dT*dG*dA*dG*d[5mC]*dA*dA*dT*dA*d[5mC]*eT*eG*eT*eG*eA) [compound 771608]
The “% inhibition of SMAD7 mRNA expression” value of the first is higher: 39% for the first, 34% for the second.

Compared with “771609 (antisense eA*eT*eG*eT*e[5mC]*dA*d[5mC]*d[5mC]*dA*dG*dG*dG*d[5mC]*dA*dG*eG*e[5mC]*eA*eG*eG) [compound 771609]”, “771616 (antisense eT*eG*e[5mC]*eT*eG*dA*dG*d[5mC]*dT*dG*dG*dT*dT*dT*dT*e[5mC]*eT*eA*eA*eG) [compound 771616]” is lower in “% inhibition of SMAD7 mRNA expression” value: 47% for the first, 0% for the second.

Compared with “771617 (antisense e[5mC]*eA*eG*eT*eG*d[5mC]*dT*dG*dA*dG*d[5mC]*dT*dG*dG*dT*eT*eT*eT*e[5mC]*eT) [compound 771617]”, “771618 (antisense e[5mC]*eA*eG*eG*eA*dT*dG*dG*dG*dA*dG*d[5mC]*dA*dG*dG*e[5mC]*eA*eG*eT*eG) [compound 771618]” is higher in “% inhibition of SMAD7 mRNA expression” value: 10% for the first, 30% for the second.

Going from “771624 (antisense eT*eT*eA*eA*e[5mC]*dA*d[5mC]*dA*d[5mC]*dA*dG*dG*dA*dT*dG*eG*eG*eA*eG*e[5mC]) [compound 771624]” to “771625 (antisense eG*e[5mC]*eT*eT*eA*dA*d[5mC]*dA*d[5mC]*dA*d[5mC]*dA*dG*dG*dA*eT*eG*eG*eG*eA) [compound 771625]”, the “% inhibition of SMAD7 mRNA expression” value rises from 0% to 48%.

With “771626 (antisense eG*e[5mC]*eA*eG*eA*dG*d[5mC]*dT*dT*dA*dA*d[5mC]*dA*d[5mC]*dA*e[5mC]*eA*eG*eG*eA) [compound 771626]” the “% inhibition of SMAD7 mRNA expression” value was 35%.

same assay, conditions: electroporation, 15,000 nM antisense oligonucleotide (Study 2), 5-10-5 MOE gapmers targeting SEQ ID NO: 1 and 2

Going from “771584 (antisense eA*eG*e[5mC]*e[5mC]*eG*dT*dG*d[5mC]*dT*d[5mC]*d[5mC]*dT*dG*dG*d[5mC]*eA*eG*e[5mC]*eT*eG) [compound 771584]” to “771585 (antisense eG*eA*eG*e[5mC]*e[5mC]*dG*dT*dG*d[5mC]*dT*d[5mC]*d[5mC]*dT*dG*dG*e[5mC]*eA*eG*e[5mC]*eT) [compound 771585]”, the “% inhibition of SMAD7 mRNA expression” value rises from 7% to 49%.

Compared with “771586 (antisense e[5mC]*e[5mC]*eT*eT*eG*dA*dT*dG*dA*dG*dG*dG*dA*dG*dA*eG*eG*eA*eG*eG) [compound 771586]”, “771592 (antisense e[5mC]*eT*eG*e[5mC]*eT*d[5mC]*dA*dG*dA*dA*dG*d[5mC]*d[5mC]*dT*dG*eT*eG*eG*eA*e[5mC]) [compound 771592]” is lower in “% inhibition of SMAD7 mRNA expression” value: 48% for the first, 0% for the second.

First: 771593 (antisense e[5mC]*eG*e[5mC]*eT*eG*d[5mC]*dT*d[5mC]*dA*dG*dA*dA*dG*d[5mC]*d[5mC]*eT*eG*eT*eG*eG) [compound 771593]
Second: 771594 (antisense eG*eG*e[5mC]*e[5mC]*eA*d[5mC]*dT*dA*dG*d[5mC]*dA*dG*dG*d[5mC]*dT*e[5mC]*eG*e[5mC]*eT*eG) [compound 771594]
The “% inhibition of SMAD7 mRNA expression” value of the first is higher: 41% for the first, 37% for the second.

First: 771600 (antisense eT*eG*eG*e[5mC]*e[5mC]*dA*dA*dA*dA*dA*dA*dG*dA*dA*dA*eG*eA*e[5mC]*eG*e[5mC]) [compound 771600]
Second: 771601 (antisense eG*eA*eT*eG*eG*d[5mC]*d[5mC]*dA*dA*dA*dA*dA*dA*dG*dA*eA*eA*eG*eA*e[5mC]) [compound 771601]
The “% inhibition of SMAD7 mRNA expression” value of the first is lower: 0% for the first, 13% for the second.

same assay, conditions: electroporation, 15,000 nM, approximately 24 hours, relative to untreated control cells, gapmers targeting SEQ ID NO: 1 and 2

Going from “771589 (antisense eT*eG*eG*eA*e[5mC]*dA*dG*dG*d[5mC]*d[5mC]*d[5mC]*dG*dT*dG*dT*e[5mC]*e[5mC]*eT*eT*eG) [compound 771589]” to “771597 (antisense eG*eA*eA*eT*eA*dA*dG*dA*d[5mC]*dA*dA*dG*dG*dA*dT*eG*eA*eA*eA*eA) [compound 771597]”, the “% inhibition of SMAD7 mRNA expression” value falls from 51% to 0%.

Going from “771605 (antisense eG*eG*e[5mC]*eT*eG*d[5mC]*d[5mC]*d[5mC]*d[5mC]*dG*dG*d[5mC]*dA*dG*d[5mC]*e[5mC]*e[5mC]*eT*eT*eG) [compound 771605]” to “771613 (antisense e[5mC]*eT*eA*eA*eG*dT*d[5mC]*d[5mC]*dG*dG*dG*dA*dA*dA*dA*eA*e[5mC]*e[5mC]*eT*eG) [compound 771613]”, the “% inhibition of SMAD7 mRNA expression” value falls from 26% to 21%.

First: 771621 (antisense eA*e[5mC]*eA*e[5mC]*eA*d[5mC]*dA*dG*dG*dA*dT*dG*dG*dG*dA*eG*e[5mC]*eA*eG*eG) [compound 771621]
Second: 771629 (antisense eA*eG*e[5mC]*eA*eT*dG*dT*d[5mC]*d[5mC]*d[5mC]*dT*d[5mC]*d[5mC]*d[5mC]*dA*eG*eG*eG*eA*e[5mC]) [compound 771629]
The “% inhibition of SMAD7 mRNA expression” value of the first is higher: 36% for the first, 25% for the second.

Reference: patent US10517889B2, “Modulators of SMAD7 expression” (Ionis Pharmaceuticals, Inc., priority 2017, dated 2019)
